pEC50: −log10 of the molar value.
What was measured:
RORγ-LBD = biological target: T1, RORγ-LBD (Homo sapiens, UniProt P51449); assay: RORγ-Ligand Binding Domain (LBD) TR-FRET Assay; assay type: biochemical;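 for TR-FRET Assay Max Response: 665/615 nm ratio relative to signal without ursolic acid or compound set at 100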
T1 construct: made in house; host or cells: SF9 cells (baculovirus)
T1 sequence (P51449 269-508 limits assumed): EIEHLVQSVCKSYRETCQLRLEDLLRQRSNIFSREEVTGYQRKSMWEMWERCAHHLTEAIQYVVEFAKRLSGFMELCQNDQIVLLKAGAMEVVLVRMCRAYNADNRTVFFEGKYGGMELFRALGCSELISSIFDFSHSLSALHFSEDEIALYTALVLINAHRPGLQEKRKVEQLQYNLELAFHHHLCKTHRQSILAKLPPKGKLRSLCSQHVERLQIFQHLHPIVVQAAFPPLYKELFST
Outline: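 Lysate from SF9 cells expressing His-RORγ-LBD is diluted to about 3 nM final in 50 mM Tris pH 7.0 assay buffer. A biotin-tagged SRC1 LXXLL peptide goes in at 200 nM final, plus ursolic acid at 2 μM final. Test compounds carry 1% DMSO final; signal read by TR-FRET.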

Gal4-RORγ-LBD = biological target: T2, Gal4-RORγ-LBD (Homo sapiens, UniProt P51449); assay: Gal4-RORγ Luciferase Reporter Assay in HEK-293T Cells; assay type: cell-based; details: HEK-293 cells, luciferase reporter, with 2 μM ursolic acid
T2 construct: expressed in transfected cells; host or cells: HEK-293 cells (pcDNA3.1neo plasmid)
T2 sequence (P51449 269-508 limits assumed): T1 sequence (P51449 269-508 limits assumed)
Outline: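 In transfected HEK-293 cells (Gal4-RORγ-LBD, Gal4-luciferase), test agents with 2 μM ursolic acid were incubated overnight at 37 °C before luminescent detection. Values are relative to the ursolic-acid-free, compound-free signal (100).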

SMILES | pEC50 (RORγ-LBD) | TR-FRET Assay Max Response (RORγ-LBD) | pEC50 (Gal4-RORγ-LBD) | Gal4-RORγ Assay Max Response (Gal4-RORγ-LBD)
O=C(O)C1CCN(C(=O)CC[C@H]2CN(S(=O)(=O)c3cccc(C(F)(F)F)c3)c3cc(-c4cccc(F)c4F)cc(F)c3O2)CC1 [Compound 23I, (S)-1-(3-(6-(2,3-difluorophenyl)-8-fluoro-4-((3-(trifluoromethyl)phenyl)sulfonyl)-3,4-dihydro-2H-benzo[b][1,4]oxazin-2-yl)propanoyl)piperidine-4-carboxylic acid] | > 6.30 | **** (The symbol “****” indicates a value greater than 200) | > 6.30 | ** (The symbol “**” indicates a value in the range of greater than 90 to 150)
O=C(O)CNC(=O)CC[C@H]1CN(S(=O)(=O)c2cccc(C(F)(F)F)c2)c2cc(-c3cccc(C(F)(F)F)n3)ccc2O1 [Compound 23J, (S)-(3-(4-((3-(trifluoromethyl)-phenyl)sulfonyl)-6-(6-(trifluoromethyl)pyridin-2-yl)-3,4-dihydro-2H-benzo[b][1,4]oxazin-2-yl)propanoyl)glycine] | > 6.30 | **** (The symbol “****” indicates a value greater than 200) | 5.00 to 5.30 | *** (The symbol “***” indicates a value in the range of greater than 150 to 200)
COc1cccc(-c2ccc3c(c2)N(S(=O)(=O)c2cccc(C(F)(F)F)c2)C[C@H](CCC(=O)NCC(=O)O)O3)c1 [Compound 23K, (S)-(3-(6-(3-methoxyphenyl)-4-((3-(trifluoromethyl)-phenyl)sulfonyl)-3,4-dihydro-2H-benzo[b][1,4]oxazin-2-yl)propanoyl)glycine] | > 6.30 | **** (The symbol “****” indicates a value greater than 200) | 5.30 to 6.30 | ** (The symbol “**” indicates a value in the range of greater than 90 to 150)
COc1cccc(-c2ccc3c(c2)N(S(=O)(=O)c2cccc(C(F)(F)F)c2)C[C@H](CCC(=O)N2CCC(C(=O)O)CC2)O3)c1 [Compound 23L, (S)-1-(3-(6-(3-methoxyphenyl)-4-((3-(trifluoromethyl)-phenyl)sulfonyl)-3,4-dihydro-2H-benzo[b][1,4]oxazin-2-yl)propanoyl)piperidine-4-carboxylic acid] | > 6.30 | **** (The symbol “****” indicates a value greater than 200) | > 6.30 | ** (The symbol “**” indicates a value in the range of greater than 90 to 150)
COc1cccc(-c2ccc3c(c2)N(S(=O)(=O)c2cccc(C(F)(F)F)c2)C[C@H](CCC(=O)N2CCS(=O)(=O)CC2)O3)c1 [Compound 23M, (S)-1-(1,1-dioxidothio-morpholino)-3-(6-(3-methoxyphenyl)-4-((3-(trifluoromethyl)phenyl)sulfonyl)-3,4-dihydro-2H-benzo[b][1,4]-oxazin-2-yl)propan-1-one] | > 6.30 | **** (The symbol “****” indicates a value greater than 200) | > 6.30 | *** (The symbol “***” indicates a value in the range of greater than 150 to 200)
O=C(CC[C@H]1CN(S(=O)(=O)c2cccc(C(F)(F)F)c2)c2cc(-c3cccc(F)c3F)ccc2O1)N1CCS(=O)(=O)CC1 [Compound 23N, (S)-3-(6-(2,3-difluorophenyl)-4-((3-(trifluoromethyl)-phenyl)sulfonyl)-3,4-dihydro-2H-benzo[b][1,4]oxazin-2-yl)-1-(1,1-dioxidothiomorpholino)propan-1-one] | > 6.30 | **** (The symbol “****” indicates a value greater than 200) | > 6.30 | *** (The symbol “***” indicates a value in the range of greater than 150 to 200)

Reference: US10611740B2, “Aryl dihydro-2H-benzo[b][1,4]oxazine sulfonamide and related compounds for use as agonists of RORγ and the treatment of disease” (Lycera Corporation, priority 2015, dated 2020)
